Results reported in patent US8324264B1, “Inhibitors of bacterial biofilms and related methods” (Sequoia Sciences, Inc., priority 2011, dated 2012).
Values after ≈ are worked out from the molar mass of the structure shown.

Legend:
P. aeruginosa biofilms = test: Biofilm growth assay (spreading biofilm on semi-solid agar), P. aeruginosa; format: cell-based; details: biofilm growth assay, overnight 37° C., vs negative controls, Tables 1-5; for IC85: Pseudomonas aeruginosa, read-out: P. aeruginosa: concentration that reduces the area of the spreading biofilm by greater than or equal to 85%
Description: (§1) “Biofilm Growth Assay” refers to an assay performed on semi-solid agar surface where the bacteria collectively move out from an inoculation point. To those skilled in the art, the act of bacteria collectively moving out from an inoculation point on a semi-solid surface may be referred to as swarming or a spreading biofilm. (Anderson, et al Microbiology, 2003, 149, 37-46; Daniels, et al. FEMS Microbiology Reviews, 2004, 28, 261-289). The procedure to perform this assay is described in detail in the Examples. This type of surface motility by bacteria has been reported in the literature by those skilled in the art. […] These references are incorporated herein by reference in their entirety.
(§2) The biofilm growth assay was carried out to measure swarming or biofilm spreading on semi-solid agar media in round plates (for example, 100×15 mm), also referred to as Petri dishes. For E. coli, the plates contained LB medium with 0.6% agar and 0.5% glucose. P. aeruginosa plates were made with M8 agar supplemented with 0.2% glucose, 100 μM CaCl2, 1 mM MgSO4, and 0.5% Casamino acids. The agar plates of this assay consisted of 0.4% to 0.7% agar (Bacto or Noble agar), although other media may also be used as described in the literature and known to those skilled in the art. Test compounds at the desired concentration were added to the cooled, autoclaved media. Portions of the media were then poured into the plates (20 mL/plate), and the plates allowed to dry at room temperature for approximately 3 to 4 hours. Alternatively, however, plates may be dried in a laminar flow hood for approximately fifteen to twenty minutes. Overnight cultures were grown in a 37° C. shaker in LB (E. coli) or TSB (P. aeruginosa). Plates were inoculated by placing 5 μL of the appropriate overnight culture in the centers of the plates. The plates then were incubated overnight at 37° C. The area of the zone of spreading bacteria was then measured and replicates are averaged. Percent inhibition was calculated as 100×(area without compound−area with compound)/(area without compound). An active compound was considered that which reduces the area of the spreading biofilm compared to negative controls by greater than or equal to 85%. The values shown in Table 1 are the concentrations of compounds (μg/ml) tested in the biofilm growth assay that reduce the area of the spreading biofilm compared to negative controls by greater than or equal to 85% unless noted differently in Table 1. A > (“greater than” symbol) as used in Table 1 is well understood to those skilled in the art as an indication that the listed concentration was not effective at this concentration.
(§3) All of the compounds shown in Tables 2, 3, 4, and 5, below, were prepared semi-synthetically from oleanolic acid, except for Compounds 2 and 3. Compound 2 was prepared from ursolic acid. Compound 3 was prepared from hederagenin, but could also be prepared from an oleanolic acid analog with a hydroxyl at C23 or C24. These compounds were tested in the spreading biofilm assay according to the methods detailed in Example I, above. The values shown in Tables 2, 3, 4, and 5 are the concentrations of compounds tested in the biofilm growth assay that reduce the area of the spreading biofilm compared to negative controls by greater than or equal to 85%.

E. coli biofilms = test: Biofilm growth assay (spreading biofilm on semi-solid agar), E. coli; format: cell-based; details: biofilm growth assay, overnight 37° C., vs negative controls, Tables 1-5; for IC85: Escherichia coli, read-out: E. coli: concentration that reduces the area of the spreading biofilm by greater than or equal to 85%
Description: as §1, §2, §3

Row | SMILES | IC85 (P. aeruginosa biofilms) [µg/mL] | IC85 (E. coli biofilms) [µg/mL] | P. aeruginosa: concentration that reduces the area of the spreading biofilm by greater than or equal to 85% (P. aeruginosa biofilms) [µg/mL] | E. coli: concentration that reduces the area of the spreading biofilm by greater than or equal to 85% (E. coli biofilms) [µg/mL]
1 | C[C@@H]1c2n[nH]c(N)c2C[C@]2(C)C3CC=C4[C@@H]5CC(C)(C)CC[C@]5(C(=O)O)CC[C@@]4(C)[C@]3(C)CC[C@@H]12 (stereo partly drawn) [Example 3, (4aS,6aS,6bR,8aS,9S,13aS,15bS)-12-Amino-2,2,6a,6b,9,13a-hexamethyl-2,3,4,4a,5,6,6a,6b,7,8,8a,9,11,13,13a,13b,14,15b-octadecahydro-1H-chryseno[1,2-f]indazole-4-a-carboxylic acid] | 0.5 (≈ 1.04 µM) | 1 (≈ 2.08 µM) |  | 
2 | CC1=C2[C@@H]3CC(C)(C)CC[C@]3(C(=O)O)CC[C@@]2(C)[C@]2(C)CC[C@H]3C(C)(C)c4n[nH]c(N)c4C[C@]3(C)C2C1 (stereo partly drawn) [Example 4, (4aS,6aS,6bR,8aR,13aR,15bS)-12-Amino-2,2,6a,6b,9,9,13a,15-octamethyl-2,3,4,4a,5,6,6a,6b,7,8,8a,9,11,13,13a,13b,14,15b-octadecahydro-1H-chryseno[1,2-f]indazole-4-a-carboxylic acid] | 0.25 (≈ 0.492 µM) | 1 (≈ 1.97 µM) |  | 
3 | CC1(C)CC[C@]2(C(=O)O)CC[C@]3(C)C(=C(c4ccco4)CC4[C@@]5(C)Cc6c(n[nH]c6N)C(C)(C)[C@@H]5CC[C@]43C)[C@@H]2C1 (stereo partly drawn) [Example 7, (4aS,6aS,6bR,13aR)-12-Amino-15-(furan-2-yl)-2,2,6a,6b,9,9,13a-heptamethyl-2,3,4,4a,5,6,6a,6b,7,8,8a,9,11,13,13a,13b,14,15b-octadecahydro-1H-chryseno[1,2-f]indazole-4-a-carboxylic acid] | 0.25 (≈ 0.447 µM) | 1 (≈ 1.79 µM) |  | 
4 | CN(C)c1ccc(C2=C3[C@@H]4CC(C)(C)CC[C@]4(C(=O)O)CC[C@@]3(C)[C@]3(C)CC[C@H]4C(C)(C)c5n[nH]c(N)c5C[C@]4(C)C3C2)cc1 (stereo partly drawn) [Example 10, (4aS,6aS,6bR,13aR)-12-Amino-15-(4-(dimethylamino)phenyl)-2,2,6a,6b,9,9,13a-heptamethyl-2,3,4,4a,5,6,6a,6b,7,8,8a,9,11,13,13a,13b,14,15b-octadecahydro-1H-chryseno[1,2-f]indazole-4-a-carboxylic acid] | 0.5 (≈ 0.816 µM) | 1 (≈ 1.63 µM) |  | 
5 | CC1(C)CC[C@]2(C(=O)O)CC[C@]3(C)C(=C(c4ccc5c(c4)CCN5)CC4[C@@]5(C)Cc6c(n[nH]c6N)C(C)(C)[C@@H]5CC[C@]43C)[C@@H]2C1 (stereo partly drawn) [Example 11, (4aS,6aS,6bR,13aR)-12-Amino-15-(indolin-5-yl)-2,2,6a,6b,9,9,13a-heptamethyl-2,3,4,4a,5,6,6a,6b,7,8,8a,9,11,13,13a,13b,14,15b-octadecahydro-1H-chryseno[1,2-f]indazole-4-a-carboxylic acid] | 0.5 (≈ 0.818 µM) | 0.5 (≈ 0.818 µM) |  | 
6 | CCC1=C2[C@@H]3CC(C)(C)CC[C@]3(C(=O)O)CC[C@@]2(C)[C@]2(C)CC[C@H]3C(C)(C)c4n[nH]c(N)c4C[C@]3(C)C2C1 (stereo partly drawn) [Example 14, (4aS,6aS,6bR,8aR,13aR,15bS)-12-Amino-15-ethyl-2,2,6a,6b,9,9,13a-heptamethyl-2,3,4,4a,5,6,6a,6b,7,8,8a,9,11,13,13a,13b,14,15b-octadecahydro-1H-chryseno[1,2-f]indazole-4-a-carboxylic acid] | 0.5 (≈ 0.958 µM) | 2 (≈ 3.83 µM) |  | 
7 | CC1(C)CC[C@]2(C(=O)O)CC[C@]3(C)C(=C(c4cccc(N)c4)CC4[C@@]5(C)Cc6c(n[nH]c6N)C(C)(C)[C@@H]5CC[C@]43C)[C@@H]2C1 (stereo partly drawn) [Example 15, (4aS,6aS,6bR,8aR,13aR,15bS)-12-Amino-15-(3-aminophenyl)-2,2,6a,6b,9,9,13a-heptamethyl-2,3,4,4a,5,6,6a,6b,7,8,8a,9,11,13,13a,13b,14,15b-octadecahydro-1H-chryseno[1,2-f]indazole-4-a-carboxylic acid] |  |  | 0.25 | 1
8 | CC1(C)CC[C@]2(C(=O)O)CC[C@]3(C)C(=C(c4cccc(O)c4)CC4[C@@]5(C)Cc6c(n[nH]c6N)C(C)(C)C5CC[C@]43C)C2C1 (stereo partly drawn) [Example 16, (4aS,6aS,6bR,13aR)-12-Amino-15-(3-hydroxyphenyl)-2,2,6a,6b,9,9,13a-heptamethyl-2,3,4,4a,5,6,6a,6b,7,8,8a,9,11,13,13a,13b,14,15b-octadecahydro-1H-chryseno[1,2-f]indazole-4-a-carboxylic acid] | 1 (≈ 1.71 µM) | 2 (≈ 3.41 µM) |  | 
9 | CC1(C)CC[C@]2(C(=O)O)CC[C@]3(C)C(=C(c4cccc(F)c4)CC4[C@@]5(C)Cc6c(n[nH]c6N)C(C)(C)[C@@H]5CC[C@]43C)[C@@H]2C1 (stereo partly drawn) [Example 17, (4aS,6aS,6bR,8aR,13aR,15bS)-12-Amino-15-(3-fluorophenyl)-2,2,6a,6b,9,9,13a-heptamethyl-2,3,4,4a,5,6,6a,6b,7,8,8a,9,11,13,13a,13b,14,15b-octadecahydro-1H-chryseno[1,2-f]indazole-4-a-carboxylic acid] |  |  | 0.5 | >2
10 | CC1(C)CC[C@]2(C(=O)O)CC[C@]3(C)C(=C(c4cccc(CN)c4)CC4[C@@]5(C)Cc6c(n[nH]c6N)C(C)(C)C5CC[C@]43C)C2C1 (stereo partly drawn) [Example 18, (4aS,6aS,6bR,13aR)-12-Amino-15-(3-(aminomethyl)phenyl)-2,2,6a,6b,9,9,13a-heptamethyl-2,3,4,4a,5,6,6a,6b,7,8,8a,9,11,13,13a,13b,14,15b-octadecahydro-1H-chryseno[1,2-f]indazole-4-a-carboxylic acid] |  |  | 0.5 | 1
11 | CC1(C)CC[C@]2(C(=O)O)CC[C@]3(C)C(=C(c4cccc(C(N)=O)c4)CC4[C@@]5(C)Cc6c(n[nH]c6N)C(C)(C)C5CC[C@]43C)C2C1 (stereo partly drawn) [Example 19, (4aS,6aS,6bR,13aR)-12-Amino-15-(3-carbamoylphenyl)-2,2,6a,6b,9,9,13a-heptamethyl-2,3,4,4a,5,6,6a,6b,7,8,8a,9,11,13,13a,13b,14,15b-octadecahydro-1H-chryseno[1,2-f]indazole-4-a-carboxylic acid] |  |  | 1 | 1
12 | Cc1ccc(C2=C3C4CC(C)(C)CC[C@]4(C(=O)O)CC[C@@]3(C)[C@]3(C)CCC4C(C)(C)c5n[nH]c(N)c5C[C@]4(C)C3C2)cc1N (stereo partly drawn) [Example 20, (4aS,6aS,6bR,13aR)-12-Amino-15-(3-amino-4-methylphenyl)-2,2,6a,6b,9,9,13a-heptamethyl-2,3,4,4a,5,6,6a,6b,7,8,8a,9,11,13,13a,13b,14,15b-octadecahydro-1H-chryseno[1,2-f]indazole-4-a-carboxylic acid] |  |  | 0.5 | 2
13 | CN(C)c1cccc(C2=C3C4CC(C)(C)CC[C@]4(C(=O)O)CC[C@@]3(C)[C@]3(C)CCC4C(C)(C)c5n[nH]c(N)c5C[C@]4(C)C3C2)c1 (stereo partly drawn) [Example 21, (4aS,6aS,6bR,13aR)-12-Amino-15-(3-(dimethylamino)phenyl)-2,2,6a,6b,9,9,13a-heptamethyl-2,3,4,4a,5,6,6a,6b,7,8,8a,9,11,13,13a,13b,14,15b-octadecahydro-1H-chryseno[1,2-f]indazole-4-a-carboxylic acid] |  |  | 0.5 | >2
